Data taken from article PMC2867455 (Journal of medicinal chemistry, 2010).
pIC50: −log10 of the molar value.

What was measured:
PFTase [1] = biological target: T1, PFTase (Saccharomyces cerevisiae, UniProt P22007+P29703); test: PFTase in vitro continuous-fluorescence assay; type: biochemical
T1 sequence (P22007 1-431): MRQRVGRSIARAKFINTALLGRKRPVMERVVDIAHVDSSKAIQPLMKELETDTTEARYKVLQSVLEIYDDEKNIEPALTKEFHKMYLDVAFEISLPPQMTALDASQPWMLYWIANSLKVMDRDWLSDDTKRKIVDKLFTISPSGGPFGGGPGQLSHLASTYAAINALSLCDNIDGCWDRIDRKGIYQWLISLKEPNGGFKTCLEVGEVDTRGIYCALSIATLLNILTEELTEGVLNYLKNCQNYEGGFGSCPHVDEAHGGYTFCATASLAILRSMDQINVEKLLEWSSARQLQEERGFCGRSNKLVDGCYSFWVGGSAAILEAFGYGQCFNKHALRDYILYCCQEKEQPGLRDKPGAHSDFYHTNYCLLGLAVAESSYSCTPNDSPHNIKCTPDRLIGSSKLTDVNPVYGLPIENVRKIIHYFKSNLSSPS
T1 sequence (P29703 1-316): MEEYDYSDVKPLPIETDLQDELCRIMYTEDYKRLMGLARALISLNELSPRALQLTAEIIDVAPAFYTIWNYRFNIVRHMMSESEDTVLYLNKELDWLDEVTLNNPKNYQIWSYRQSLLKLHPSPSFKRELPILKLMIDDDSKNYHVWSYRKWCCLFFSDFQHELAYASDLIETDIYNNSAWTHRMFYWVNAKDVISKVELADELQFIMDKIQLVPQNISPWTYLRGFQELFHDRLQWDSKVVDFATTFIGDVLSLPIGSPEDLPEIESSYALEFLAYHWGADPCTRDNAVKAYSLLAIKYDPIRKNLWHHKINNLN

PFTase [2] = details: read-out: IC50 for PFTase; cited from earlier work
GFP-H-Ras = test: Cell based analysis of GFP-H-Ras processing in MDCK cells
[3] = test system: mouse models of leukemia and melanoma; details: intra-peritoneal delivery; cited from earlier work
[4] = at concentrations as high as 100 µM, 0.04% Triton X-100

Q: Which “PFTase inhibition (in words)” value (PFTase [1]; [4]) does the source give for `Clc1ccccc1C(c1ccccc1)(c1ccccc1)n1ccnc1` [Clotrimazole] here?
A: little to no inhibition

Q: With `CC(=O)OCC(=O)[C@@]1(O)CC[C@H]2[C@@H]3CCC4=CC(=O)CC[C@]4(C)[C@H]3C(=O)C[C@@]21C` [Cortisone acetate] as the compound, how does the pIC50 (PFTase [2]) read?
A: 4.85

Q: Which “PFTase inhibition (in words)” value (PFTase [1]; [4]) does the source give for `OC(Cn1cncn1)(Cn1cncn1)c1ccc(F)cc1F` [Fluconazole] here?
A: little to no inhibition

Q: With `CC(=O)N1CCN(c2ccc(OCC3COC(Cn4ccnc4)(c4ccc(Cl)cc4Cl)O3)cc2)CC1` (stereo not shown) [Ketoconazole] as the compound, how does the “PFTase inhibition (in words)” value (PFTase [1]; [4]) read?
A: little to no inhibition

Q: Which “inhibition of GFP-H-Ras processing” value (GFP-H-Ras; 25 µM, 24 h) does the source give for `CCOC(=O)N1CCC(=C2c3ccc(Cl)cc3CCc3cccnc32)CC1` [Loratadine] here?
A: appreciable inhibition of GFP-H-Ras processing

Q: What about the “inhibition of prenylation (GFP-H-Ras)” value (GFP-H-Ras; concentrations lower than 25 µM, 24 h) of the same compound?
A: did not manifest observable inhibition of prenylation

Q: Which “inhibition of GFP-H-Ras processing” value (GFP-H-Ras; 10 µM, 48 h, cells remaining alive) does the source give for `Clc1ccc(COC(Cn2ccnc2)c2ccc(Cl)cc2Cl)c(Cl)c1` (stereo not shown) [Miconazole] here?
A: significant inhibition of GFP-H-Ras processing

Q: And the toxicity to cells (MDCK cells)?
A: toxicity and cell death

Q: And the “survival in mouse models of leukemia and melanoma” value [3]?
A: promote survival

Q: For Tetraiodophenolphthalein [TPIT], which “PFTase inhibition (in words)” value (PFTase [1]; continuous fluorescence assay) is on record?
A: not an inhibitor of PFTase
